Structures can show the parent of a compound that is named as a salt.
Key:
[1] = test system: monoiodoacetate-induced osteoarthritis model; assay: Inhibitory effect on hindlimb weight distribution in monoiodoacetate-induced osteoarthritis model; format: in vivo, rat; conditions: for significance versus solvent group: at the dose shown in Table 5, P<0.05; for Improvement rate: male SD rats, 1 mg/kg oral, 3 weeks after MIA, 1 or 2 hours after administration
Experimental: (§1) Moreover, in Test Examples 2 to 6, a 0.5% methyl cellulose suspension was used as a test drug.
This model is a model of osteoarthritis, and action to osteoarthritis pain can be evaluated using the model. This test was performed based on The Journal of Pharmacology and Experimental Therapeutics, 2010, vol. 334, p. 955-963. Under isoflurane anesthesia, 1 mg/site of monoiodoacetate (hereinafter referred to as MIA) (manufactured by Sigma-Aldrich Co., LLC) solution was singly administered into the right knee joint cavity of male SD rats (provided by Charles River Laboratories, Japan). MIA was dissolved in physiological saline, and 50 μL thereof was administered using a 27 gauge×0.5 inches needle. 3 weeks after the MIA administration, the solvent or the test drug was orally administered. After 1 or 2 hours, the weight distribution between the left and the right hindlimb was measured using an Incapacitance Tester (manufactured by Linton Instrumentation). A significant difference test of a solvent group and a test drug group was performed in comparison between groups using Student's t-test or Dunnett multiple comparison test. With P<0.05 in each assay, it was determined that there was a significant difference.
Effectiveness with respect to a monoiodoacetate-induced osteoarthritis model of the several representative Example compounds of the invention is shown in the following Table.

[2] = target: T1, IK1 channel (Homo sapiens, UniProt O15554); assay: IK1 channel opening activity measurement test (membrane potential, human IK1 channel expressing CHO dhfr- cells); format: cell-based; parameters: expressed in transfected cells; host or cells: CHO dhfr- cells; conditions: NS-309 0.2 μM = 100%, DMSO = 0%, read-out: EC50 of IK1 channel opening action
Experimental: (§2) Cells ((1) T84 cells (which is known as IK1 channel expressing cells) or (2) human IK1 channel expressing cells (transgene: NM_002250.2, use cells: CHO dhfr-)) were seeded in a 384-well microplate so as to be 12000 cells/well. After incubation overnight, a medium was suctioned, and 20 μL of FLIPR Membrane Potential Assay Reagent (FLIPR Membrane Potential Assay kit, manufactured by Molecular Devices LLC) was added to the medium, followed by incubation at room temperature for 1 hour. Fluorescence intensity was measured at 530 nm/590 nm, which was set as a pre value. 20 μL of a buffer solution containing a test drug (which contains 0.01% pluronic acid and 20 mM Hepes-NaOH (pH7.4); 0.2% CHAPS in HBSS) was added, followed by incubation at room temperature for 1 hour, and a post value was measured. Activity of the test drug was determined from relative values where NS-309 (6,7-dichloro-1H-indole-2,3-dione 3-oxime, manufactured by Sigma-Aldrich Co., LLC; 0.2 μM; DMSO solution) treatment was set as 100%, and DMSO treatment was set as 0%. Activity value (%) at each concentration was plotted against a concentration of the test drug, and EC50 value was calculated by a Logistic regression method.
(§3) The EC50 values of an IK1 channel opening action of the several representative Example compounds of the invention are shown in the following Table (in the Table, No. means a number, and Ex means an Example compound number. The same shall apply hereinafter.). […] With P<0.05 in each assay, it was determined that there was a significant difference.

[3] = test system: adjuvant-induced arthritis rat; assay: Inhibitory effect on hindlimb weight distribution in adjuvant-induced arthritis rat; format: in vivo; conditions: for significance versus solvent group: at the dose shown in Table 4, P<0.05; for MED (minimum effective dose): female Lewis rat, oral, 1 or 2 hours after administration, hindlimb weight distribution
Experimental: as §1
This model is a model to study inflammatory pain. 50 μL of killed Mycobacterium tuberculosis H37Ra (manufactured by DIFCO Laboratories) suspended in a liquid paraffin was subcutaneously administered into a right hindlimb footpad of a female Lewis rat (provided by Charles River Laboratories, Japan) so as to be 10 mg/mL. Next day, the solvent or the test drug was orally administered. After 1 or 2 hours, the weight distribution between the left and the right hindlimbs was measured using an Incapacitance Tester (manufactured by Linton Instrumentation). A significant difference test of a solvent group and a test drug group was performed in comparison between groups using Student's t-test or Dunnett multiple comparison test. With P<0.05 in each assay, it was determined that there was a significant difference.
Effectiveness in the adjuvant-induced arthritis rat test of the several representative Example compounds of the invention is shown in the following Table.

[4] = target: T1, IK1 channel; assay: IK1 channel opening activity measurement test (membrane potential, T84 cells); format: cell-based; parameters: T84 cells (which is known as IK1 channel expressing cells); endogenous in cells; host or cells: T84 cells; conditions: NS-309 0.2 μM = 100%, DMSO = 0%, read-out: EC50 of IK1 channel opening action
Experimental: as §2, §3

[5] = test system: vagotomized rat; assay: Action to tenderness threshold value in vagotomized rat; format: in vivo; conditions: for significance versus solvent group: at the dose shown in Table 6, P<0.05; for Improvement rate (tenderness threshold value): male SD rats, 3 mg/kg oral, after 2 hours, sham = 100%, surgery solvent group = 0%
Experimental: as §1
The model was made based on Neuroscience, 2009, vol. 164, p. 1252-1262. Male SD rats (provided by Japan SLC, Inc, Japan) were anesthetized with somnopentyl, followed by shaving near a xiphisternum. Incision was performed along the midline from the xiphisternum to the tail side. A stomach and an esophagus under a diaphragm were exposed, and vagus nerves on both sides of the esophagus were transected. Muscle and skin were sutured in order. 1 to 3 weeks after the surgery, a decrease in the tenderness threshold value was confirmed. The solvent or the test drug was orally administered, and after 2 hours, the tenderness threshold value was measured using Randall-Selitto equipment (manufactured by Muromachi Kikai Co., Ltd.) in a gastrocnemius muscle. A significant difference test of a solvent group and a test drug group was performed in comparison between groups using Student's t-test or Dunnett multiple comparison test. With P<0.05 in each assay, it was determined that there was a significant difference.
Effectiveness of several representative Example compounds of the invention is shown in the following Table as an improvement rate when a value of a group in which the solvent was administered into a sham surgery group was set as 100%, and a value of a group in which the solvent was administered into a surgery group was set as 0%.

[6] = test system: abdominal pain by rat colorectal distension; assay: Effect on abdominal pain by rat colorectal distension; format: in vivo; conditions: for MED (minimum effective dose): Wistar male rats, oral, 1 hour after administration, abdominal flexion behavior; for significance versus solvent group: at the dose shown in Table 3, P<0.05
Experimental: as §1
After Wistar male rats (CLEA Japan, Inc.) were anesthetized with isoflurane, a balloon was inserted into the colon. After awakening, the test drug was orally administered, and after 1 hour, abdominal pain induced by balloon expansion was measured as an indicator of an abdominal flexion behavior. Each stimulus (15, 30, 45, 60 mmHg) was repeatedly performed for 5 minutes at 5-minute intervals. A significant difference test of a solvent group and a test drug group was performed in comparison between groups using Student's t-test or Dunnett multiple comparison test. With P<0.05 in each assay, it was determined that there was a significant difference.
Effectiveness in the abdominal pain test by rat colorectal distension of the several representative Example compounds of the invention is shown in the following Table (In the Table, MED means a minimum effective dose. The same shall apply hereinafter.).

[7] = test system: reserpine-induced myalgia model; assay: Effect on tenderness threshold value in reserpine-induced myalgia model; format: in vivo, rat
Experimental: as §1
This model is a model which imitates a fibromyalgia disease. This test was performed based on Pain, 2009, vol. 146, p 26-33. Reserpine (1 mg/kg) was subcutaneously administered into male SD rats (provided by Japan SLC, Inc, Japan) once a day for 3 days. After 5 days, the solvent or the test drug was orally administered. After 2 hours, a tenderness threshold value was measured using Randall-Selitto equipment (manufactured by Muromachi Kikai Co., Ltd.) in a gastrocnemius muscle. A significant difference test of a solvent group and a test drug-administered group was performed in comparison between groups using Student's t-test or Dunnett multiple comparison test. Here, a value obtained by administering the solvent to a normal rat to which reserpine was not administered was set as 100%, and a value of the reserpine group into which the solvent was administered was set as 0%. With P<0.05 in each assay, it was determined that there was a significant difference.

Compound	significance versus solvent group [1]	Improvement rate [1]	EC50 [2]	significance versus solvent group [3]	MED (minimum effective dose) [3]	EC50 [4]	significance versus solvent group [5]	Improvement rate (tenderness threshold value) [5]	MED (minimum effective dose) [6]	significance versus solvent group [6]	significance versus solvent group ([7]; 1 mg/kg, P<0.05)	Improvement rate (tenderness threshold value) ([7]; male SD rats, 1 mg/kg oral, after 2 hours, normal rat = 100%, reserpine solvent group = 0%)
O=C(O)c1cc(-c2c(F)sc3cc(Cl)ccc23)ccc1N1CCO[C@H](CNC2CCC2)C1 [Ex11, 5-(6-chloro-2-fluoro-1-benzothiophen-3-yl)-2-{(2R)-2-[(cyclobutylamino)methyl]morpholin-4-yl}benzoic acid hydrochloride]	significant activity	>50% (l mg/kg)	11 nM	significant activity	3 mg/kg	3070 nM						
Cc1sc2cc(Cl)c(F)cc2c1-c1ccc(N2CCO[C@H](CNC3CCC3)C2)c(C(=O)O)c1 [Ex18, 5-(6-chloro-5-fluoro-2-methyl-1-benzothiophen-3-yl)-2-{(2R)-2-[(cyclobutylamino)methyl]morpholin-4-yl}benzoic acid hydrochloride]	significant activity	>50% (1 mg/kg)	48 nM	significant activity	3 mg/kg	920 nM	significant activity	>50% (3 mg/kg)	0.3 mg/kg	significant activity		
O=C(O)c1cc(-c2csc3cc(C(F)(F)F)c(Cl)cc23)ccc1N1CCO[C@H](CNC2CCC2)C1 [Ex15, 5-[5-chloro-6-(trifluoromethyl)-1-benzothiophen-3-yl]-2-{(2R)-2-[(cyclobutylamino)methyl]morpholin-4-yl}benzoic acid hydrochloride]							significant activity	>50% (3 mg/kg)				
Cc1sc2cc(Cl)ccc2c1-c1ccc(N2CCO[C@H](CNC3CCC3)C2)c(C(=O)O)c1 [Ex10, 5-(6-chloro-2-methyl-1-benzothiophen-3-yl)-2-{(2R)-2-[(cyclobutylamino)methyl]morpholin-4-yl}benzoic acid monohydrochloride]	significant activity	>50% (l mg/kg)	93 nM	significant activity	3 mg/kg	3890 nM	significant activity	>50% (3 mg/kg)	0.3 mg/kg	significant activity	significant activity	higher than 50%
CC(C)(C)NC[C@H]1CCCN(c2ccc(-c3csc4cc(C(F)(F)F)ccc34)cc2C(=O)O)C1 [Ex14, 2-{(3R)-3-[(tert-butylamino)methyl]piperidin-1-yl}-5-[6-(trifluoromethyl)-1-benzothiophen-3-yl]benzoic acid hydrochloride]	significant activity	42% (1 mg/kg)	28 nM	significant activity	1 mg/kg	3170 nM	significant activity	>50% (3 mg/kg)				
Cc1sc2cc(F)ccc2c1-c1ccc(N2CCO[C@H](CNC3CCC3)C2)c(C(=O)O)c1 [Ex13]			52 nM			3760 nM						
O=C(O)c1cc(-c2csc3cc(C(F)(F)F)ccc23)ccc1N1CCO[C@H](CNC2CCC2)C1 [Ex12]			24 nM			1750 nM						
Cc1sc2cc(Cl)ccc2c1-c1ccc(N2CCO[C@H](CNC(C)(C)C)C2)c(C(=O)O)c1 [Ex16]			33 nM			8040 nM						
Cc1sc2cc(Cl)c(F)cc2c1-c1ccc(N2CCO[C@H](CNC(C)(C)C)C2)c(C(=O)O)c1 [Ex19]			5.5 nM			1500 nM						
